These are literature values, as cited in patent US20040132815A1, “Preventive/remedial agent for inflammatory disease in oral-cavity mucosa and the like” (priority 2001, published 2004).

The conditions of this series: compared with the disodium salt.

Turning to `CC(C)c1cc2c(cc1S(=O)(=O)[O-])[C@@]1(C)CCC[C@@](C)(C(=O)O)[C@@H]1CC2.[Na+]` [Sulfodehydroabietic acid monosodium salt], the hygroscopicity result is listed as “less hygroscopic” and the stability result is reported as “more stable”.
